Test results reported in ChEMBL document CHEMBL1201862, “PubChem BioAssay data set” (2004).
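Tested at 5 concentrations; 48 h exposure; 96-well plates; endpoints linearly interpolated, else capped at highest concentration. At the GI50, growth is halved.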 Calls of active or inactive are those of the source. Rule as the data show it: active = GI50 up to about 1.1 µM and inactive = higher.

Columns and labels:
Test in all cases: NCI-60 cell line screen, 48 h
MDA-N = test system: MDA-N
SK-MEL-28 = test system: SK-MEL-28
A549 = test system: A549
NCI-H522 = test system: NCI-H522
SF-295 = test system: SF-295
NCI-H23 = test system: NCI-H23
CAKI-1 = test system: CAKI-1
TK-10 = test system: TK-10
EKVX = test system: EKVX
OVCAR-8 = test system: OVCAR-8
MDA-MB-231 = test system: MDA-MB-231
U-251 = test system: U-251
SK-OV-3 = test system: SK-OV-3
HCT-116 = test system: HCT-116
SF-268 = test system: SF-268
Malme-3M = test system: Malme-3M
HT-29 = test system: HT-29
NCI-H226 = test system: NCI-H226
NCI-H460 = test system: NCI-H460
RXF 393 = test system: RXF 393
MDA-MB-435 = test system: MDA-MB-435
HOP-62 = test system: HOP-62
UACC-257 = test system: UACC-257
UACC-62 = test system: UACC-62
MCF7 = test system: MCF7
HCC 2998 = test system: HCC 2998
PC-3 = test system: PC-3
T47D = test system: T47D
M14 = test system: M14
SK-MEL-2 = test system: SK-MEL-2
KM12 = test system: KM12
SK-MEL-5 = test system: SK-MEL-5
A498 = test system: A498
NCI/ADR-RES = test system: NCI/ADR-RES
786-0 = test system: 786-0
SN12C = test system: SN12C
HOP-92 = test system: HOP-92
K562 = test system: K562
BT-549 = test system: BT-549
SF-539 = test system: SF-539
LOX IMVI = test system: LOX IMVI
SNB-19 = test system: SNB-19
COLO 205 = test system: COLO 205
MOLT-4 = test system: MOLT-4
DU-145 = test system: DU-145
UO-31 = test system: UO-31
OVCAR-4 = test system: OVCAR-4
SW-620 = test system: SW-620
ACHN = test system: ACHN
IGROV-1 = test system: IGROV-1
RPMI-8226 = test system: RPMI-8226
HCT-15 = test system: HCT-15
OVCAR-5 = test system: OVCAR-5
OVCAR-3 = test system: OVCAR-3
SNB-75 = test system: SNB-75
CCRF-CEM = test system: CCRF-CEM
SR = test system: SR
HL-60 = test system: HL-60

For `O=C(O)c1cc(Cl)cc2c1NC1(N2)C(=O)Nc2ccccc21` (configuration not stated), the GI50 (MDA-N) was > 100 µM (inactive), the GI50 (SK-MEL-28) was > 100 µM (inactive) and the GI50 (A549) was > 100 µM (inactive). For the same compound, the GI50 (NCI-H522) was > 100 µM (inactive), the GI50 (SF-295) was > 100 µM (inactive) and the GI50 (NCI-H23) was > 100 µM (inactive). The GI50 (CAKI-1) was > 100 µM (inactive), the GI50 (TK-10) was > 100 µM (inactive) and the GI50 (EKVX) was > 100 µM (inactive). The GI50 (OVCAR-8) was 39.6 µM (inactive), the GI50 (MDA-MB-231) was > 100 µM (inactive) and the GI50 (U-251) was 42.5 µM (inactive). For the same compound, the GI50 (SK-OV-3) was > 100 µM (inactive), the GI50 (HCT-116) was 56.4 µM (inactive) and the GI50 (SF-268) was 62.1 µM (inactive). For the same compound, the GI50 (Malme-3M) was 69.2 µM (inactive), the GI50 (HT-29) was 78.5 µM (inactive) and the GI50 (NCI-H226) was > 100 µM (inactive). The GI50 (NCI-H460) was > 100 µM (inactive), the GI50 (RXF 393) was 52.6 µM (inactive) and the GI50 (MDA-MB-435) was > 100 µM (inactive). The GI50 (HOP-62) was > 100 µM (inactive), the GI50 (UACC-257) was > 100 µM (inactive) and the GI50 (UACC-62) was > 100 µM (inactive). For the same compound, the GI50 (MCF7) was > 100 µM (inactive), the GI50 (HCC 2998) was > 100 µM (inactive) and the GI50 (PC-3) was > 100 µM (inactive). The GI50 (T47D) was > 100 µM (inactive), the GI50 (M14) was > 100 µM (inactive) and the GI50 (SK-MEL-2) was > 100 µM (inactive). For the same compound, the GI50 (KM12) was > 100 µM (inactive), the GI50 (SK-MEL-5) was > 100 µM (inactive) and the GI50 (A498) was > 100 µM (inactive). The GI50 (NCI/ADR-RES) was > 100 µM (inactive), the GI50 (786-0) was > 100 µM (inactive) and the GI50 (SN12C) was > 100 µM (inactive). For the same compound, the GI50 (HOP-92) was > 100 µM (inactive), the GI50 (K562) was > 100 µM (inactive) and the GI50 (BT-549) was > 100 µM (inactive). The GI50 (SF-539) was > 100 µM (inactive), the GI50 (LOX IMVI) was 49 µM (inactive) and the GI50 (SNB-19) was > 100 µM (inactive). The GI50 (COLO 205) was > 100 µM (inactive), the GI50 (MOLT-4) was > 100 µM (inactive) and the GI50 (DU-145) was > 100 µM (inactive). For the same compound, the GI50 (UO-31) was > 100 µM (inactive), the GI50 (OVCAR-4) was > 100 µM (inactive) and the GI50 (SW-620) was 73.6 µM (inactive). For the same compound, the GI50 (ACHN) was > 100 µM (inactive), the GI50 (IGROV-1) was 33.3 µM (inactive) and the GI50 (RPMI-8226) was > 100 µM (inactive). The GI50 (HCT-15) was 45.4 µM, the GI50 (OVCAR-5) was > 100 µM (inactive) and the GI50 (OVCAR-3) was > 100 µM (inactive). For the same compound, the GI50 (SNB-75) was 97.1 µM (inactive), the GI50 (CCRF-CEM) was > 100 µM (inactive) and the GI50 (SR) was 65.8 µM (inactive).

With `Cc1c(O)c(OC2OC(CO)C(O)C(O)C2O)cc2c1CC[C@@H]1C2(C)C(=O)C[C@]2(C)[C@@H]([C@@](C)(O)C(O)/C=C/C(C)(C)O)[C@H](O)C[C@@]12C` (some centres not stated) the GI50 (MDA-N) was > 100 µM (inactive), the GI50 (SK-MEL-28) was > 100 µM (inactive) and the GI50 (A549) was > 100 µM (inactive). The GI50 (HL-60) was > 100 µM (inactive), the GI50 (NCI-H522) was > 100 µM (inactive) and the GI50 (SF-295) was > 100 µM (inactive). For the same compound, the GI50 (NCI-H23) was > 100 µM (inactive), the GI50 (CAKI-1) was > 100 µM (inactive) and the GI50 (TK-10) was > 100 µM (inactive). The GI50 (EKVX) was > 100 µM (inactive), the GI50 (OVCAR-8) was > 100 µM (inactive) and the GI50 (MDA-MB-231) was > 100 µM (inactive). The GI50 (U-251) was > 100 µM (inactive), the GI50 (SK-OV-3) was > 100 µM (inactive) and the GI50 (HCT-116) was > 100 µM (inactive). For the same compound, the GI50 (SF-268) was > 100 µM (inactive), the GI50 (Malme-3M) was > 100 µM (inactive) and the GI50 (HT-29) was > 100 µM (inactive). The GI50 (NCI-H226) was > 100 µM (inactive), the GI50 (NCI-H460) was > 100 µM (inactive) and the GI50 (RXF 393) was > 100 µM (inactive). The GI50 (MDA-MB-435) was > 100 µM (inactive), the GI50 (HOP-62) was > 100 µM (inactive) and the GI50 (UACC-257) was > 100 µM (inactive). For the same compound, the GI50 (UACC-62) was > 100 µM (inactive), the GI50 (MCF7) was > 100 µM (inactive) and the GI50 (HCC 2998) was > 100 µM (inactive). The GI50 (PC-3) was > 100 µM (inactive), the GI50 (T47D) was > 100 µM (inactive) and the GI50 (M14) was > 100 µM (inactive). For the same compound, the GI50 (SK-MEL-2) was > 100 µM (inactive), the GI50 (KM12) was > 100 µM (inactive) and the GI50 (SK-MEL-5) was > 100 µM (inactive). The GI50 (A498) was > 100 µM (inactive), the GI50 (NCI/ADR-RES) was > 100 µM (inactive) and the GI50 (786-0) was > 100 µM (inactive). The GI50 (SN12C) was > 100 µM (inactive), the GI50 (HOP-92) was > 100 µM (inactive) and the GI50 (K562) was > 100 µM (inactive). For the same compound, the GI50 (BT-549) was > 100 µM (inactive), the GI50 (SF-539) was > 100 µM (inactive) and the GI50 (LOX IMVI) was > 100 µM (inactive). For the same compound, the GI50 (SNB-19) was > 100 µM (inactive), the GI50 (COLO 205) was > 100 µM (inactive) and the GI50 (MOLT-4) was > 100 µM (inactive). The GI50 (DU-145) was > 100 µM (inactive), the GI50 (UO-31) was > 100 µM (inactive) and the GI50 (OVCAR-4) was > 100 µM (inactive). For the same compound, the GI50 (SW-620) was > 100 µM (inactive), the GI50 (ACHN) was > 100 µM (inactive) and the GI50 (IGROV-1) was > 100 µM (inactive). The GI50 (HCT-15) was over 100 µM, the GI50 (OVCAR-5) was > 100 µM (inactive) and the GI50 (OVCAR-3) was > 100 µM (inactive). For the same compound, the GI50 (SNB-75) was > 100 µM (inactive), the GI50 (CCRF-CEM) was > 100 µM (inactive) and the GI50 (SR) was > 100 µM (inactive).

With `CSc1ncnc2c1cnn2Cc1cn(COCC(O)CO)nn1` (configuration not stated) the GI50 (MDA-N) was > 100 µM (inactive), the GI50 (SK-MEL-28) was > 100 µM (inactive) and the GI50 (A549) was > 100 µM (inactive). For the same compound, the GI50 (HL-60) was > 100 µM (inactive), the GI50 (NCI-H522) was 21.2 µM (inactive) and the GI50 (SF-295) was > 100 µM (inactive). For the same compound, the GI50 (NCI-H23) was > 100 µM (inactive), the GI50 (CAKI-1) was > 100 µM (inactive) and the GI50 (TK-10) was > 100 µM (inactive). The GI50 (EKVX) was > 100 µM (inactive), the GI50 (OVCAR-8) was > 100 µM (inactive) and the GI50 (MDA-MB-231) was > 100 µM (inactive). The GI50 (U-251) was > 100 µM (inactive), the GI50 (SK-OV-3) was > 100 µM (inactive) and the GI50 (HCT-116) was > 100 µM (inactive). For the same compound, the GI50 (SF-268) was 22.8 µM (inactive), the GI50 (HT-29) was > 100 µM (inactive) and the GI50 (NCI-H226) was > 100 µM (inactive). The GI50 (MDA-MB-435) was > 100 µM (inactive), the GI50 (HOP-62) was > 100 µM (inactive) and the GI50 (UACC-257) was > 100 µM (inactive). For the same compound, the GI50 (UACC-62) was > 100 µM (inactive), the GI50 (MCF7) was > 100 µM (inactive) and the GI50 (HCC 2998) was > 100 µM (inactive). The GI50 (PC-3) was > 100 µM (inactive), the GI50 (T47D) was > 100 µM (inactive) and the GI50 (M14) was > 100 µM (inactive). For the same compound, the GI50 (SK-MEL-2) was > 100 µM (inactive), the GI50 (KM12) was > 100 µM (inactive) and the GI50 (SK-MEL-5) was > 100 µM (inactive). For the same compound, the GI50 (A498) was > 100 µM (inactive), the GI50 (NCI/ADR-RES) was > 100 µM (inactive) and the GI50 (786-0) was > 100 µM (inactive). The GI50 (SN12C) was > 100 µM (inactive), the GI50 (HOP-92) was > 100 µM (inactive) and the GI50 (BT-549) was > 100 µM (inactive). The GI50 (SF-539) was > 100 µM (inactive), the GI50 (LOX IMVI) was > 100 µM (inactive) and the GI50 (SNB-19) was > 100 µM (inactive). For the same compound, the GI50 (COLO 205) was > 100 µM (inactive), the GI50 (MOLT-4) was > 100 µM (inactive) and the GI50 (DU-145) was > 100 µM (inactive). For the same compound, the GI50 (UO-31) was > 100 µM (inactive), the GI50 (OVCAR-4) was > 100 µM (inactive) and the GI50 (SW-620) was > 100 µM (inactive). The GI50 (ACHN) was > 100 µM (inactive), the GI50 (IGROV-1) was > 100 µM (inactive) and the GI50 (RPMI-8226) was > 100 µM (inactive). The GI50 (HCT-15) was over 100 µM, the GI50 (OVCAR-5) was > 100 µM (inactive) and the GI50 (OVCAR-3) was > 100 µM (inactive). The GI50 (CCRF-CEM) was > 100 µM (inactive) and the GI50 (SR) was > 100 µM (inactive).
